Test results reported in patent publication US11434242B2, “Dopamine-b-hydroxylase inhibitors” (BIAL-PORTELA & Cª, S.A., priority 2017, dated 2022).
Where a name gives a salt, the structure may show the parent alone.

Key:
[1] = target: T1, Dopamine beta hydroxylase (Homo sapiens, UniProt P09172); experiment: Dopamine beta hydroxylase activity in human plasma; assay type: biochemical; conditions: for Plasma (0.1 μM), activity in % of control: inhibitor 0.1 μM; for Plasma (0.01 μM), activity in % of control: inhibitor 0.01 μM
T1 construct: 125 μl of plasma; tissue Instituto Português do Sangue Transplantação; host or cells: human plasma from healthy donors
T1 sequence (P09172 40-617 limits assumed): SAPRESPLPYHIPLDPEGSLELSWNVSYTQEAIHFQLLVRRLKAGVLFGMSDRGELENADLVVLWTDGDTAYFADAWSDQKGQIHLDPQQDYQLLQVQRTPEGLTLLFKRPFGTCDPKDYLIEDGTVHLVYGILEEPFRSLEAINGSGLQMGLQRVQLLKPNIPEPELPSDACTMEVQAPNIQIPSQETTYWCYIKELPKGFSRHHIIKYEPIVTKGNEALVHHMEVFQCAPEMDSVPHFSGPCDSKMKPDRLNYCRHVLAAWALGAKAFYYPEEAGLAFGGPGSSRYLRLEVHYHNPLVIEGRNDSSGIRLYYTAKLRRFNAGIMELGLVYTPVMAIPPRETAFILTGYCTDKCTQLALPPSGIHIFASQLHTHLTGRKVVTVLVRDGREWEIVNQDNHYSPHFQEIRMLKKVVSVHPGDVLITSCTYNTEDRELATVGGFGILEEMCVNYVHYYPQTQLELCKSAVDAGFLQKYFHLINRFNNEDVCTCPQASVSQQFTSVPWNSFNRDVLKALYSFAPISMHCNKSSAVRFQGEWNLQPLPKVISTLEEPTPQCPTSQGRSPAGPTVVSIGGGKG
In short: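 Healthy-donor human plasma pre-incubated 10 min at 37° C with compound at final 10, 100 or 1000 nM in pH 5.0 acetate buffer with ascorbate, fumarate, pargyline, N-ethylmaleimide, catalase and copper sulfate. Tyramine substrate then added for 45 min; octopamine formed was isolated by SCX cartridge, periodate-converted and read at 330 nm; activity given as % control.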

[2] = system: noradrenaline (NA) in brain stem; experiment: Catecholamine determination: noradrenaline in brain stem after oral administration; assay type: in vivo, Wistar rats; conditions: 10 mg/kg oral; for NA in Br.s (% Control): rat brain stem noradrenaline, 15 h post-dose, mean±SD of 4 rats; for effect on levels of NA in CNS tissues such as brain stem: rat
Experimental: Catecholamines quantification in brain stem was performed as previously described (Bonifacio, M. J.; Sousa, F.; Neves, M.; Palma, N.; Igreja, B.; Pires, N. M.; Wright, L. C.; Soares-da-Silva, P. “Characterization of the interaction of the novel anthyhypertensive etamicastat with human dopamine-beta-hydroxylase: comparison with nepicastat.” Eur. J. Pharmacol. 751, 50-58, 2015) with minor modifications. Test compounds were prepared in 40% of kleptose at a concentration of 2.5 mg/ml to be administered at a dose of 10 mg/kg. Compounds and vehicle (kleptose 40%) were administered to Wistar rats and tissues (brain stem or heart left ventricle) collected in perchloric acid (0.2M) at defined time points after administration. Tissues were stored overnight at 4° C. and the solution was then filtered by centrifugation (1500 g, 4 min, 4° C.) through 0.22 μm pore size filters (Costar Spin-x from Corning Inc., USA). Catecholamines were quantified in filtrates by directly injecting 50 μl of sample volume on a HPLC system with electrochemical detection, using a Spheri-5RP-185 mm column (Perkin-Elmer). Mobile phase consisted of a solution containing 0.1M citric acid, 0.1M sodium acetate, 0.15 mM EDTA, 1 mM dibutylamine, 1 mM octylsulfate, and 5% methanol adjusted to pH 3.5 with perchloric acid.

| SMILES | Plasma (0.1 μM), activity in % of control [1] | Plasma (1 μM), activity in % of control ([1]; inhibitor 1 μM) | NA in Br.s (% Control) [2] [% Control] | effect on levels of NA in CNS tissues such as brain stem [2] | Plasma (0.01 μM), activity in % of control [1] |
| --- | --- | --- | --- | --- | --- |
| Cl.Fc1ccc(Cl)cc1[C@]12C[C@H]1c1c(CCN3CCOCC3)[nH]c(=S)n1C2 [Example 174, (5aS,6aR)-5a-(5-chloro-2-fluorophenyl)-1-(2-morpholinoethyl)-5,5a,6,6a-tetrahydrocyclopropa[3,4]pyrrolo[1,2-c]imidazole-3(2H)-thione hydrochloride] | 52.7 % of control | 8.5 % of control | 84 ± 8 | failed to reduce levels of NA | – |
| F.Fc1ccc(Br)cc1[C@]12C[C@H]1c1c(CCN3CCOCC3)[nH]c(=S)n1C2 [Example 191, (5aS,6aR)-5a-(5-bromo-2-fluorophenyl)-1-(2-morpholinoethyl)-5,5a,6,6a-tetrahydrocyclopropa[3,4]pyrrolo[1,2-c]imidazole-3(2H)-thione hydrofluoride] | 26.0 % of control | – | 83 ± 10 | failed to reduce levels of NA | 82.3 % of control |
| Fc1ccc(Br)c(F)c1[C@@H]1Cc2c(CCN3CCOCC3)[nH]c(=S)n2C1 [Example 195, (S)-6-(3-bromo-2,6-difluorophenyl)-1-(2-morpholinoethyl)-2,5,6,7-tetrahydro-3H-pyrrolo[1,2-c]imidazole-3-thione] | 41.7 % of control | – | 123 ± 55 | failed to reduce levels of NA | 77.3 % of control |
| Fc1cc(F)c(F)c([C@H]2Cc3c(CCCN4CCCC4)[nH]c(=S)n3C2)c1F [Example 219, (R)-1-(3-(pyrrolidin-1-yl)propyl)-6-(2,3,5,6-tetrafluorophenyl)-2,5,6,7-tetrahydro-3H-pyrrolo[1,2-c]imidazole-3-thione hydrochloride] | 19.7 % of control | – | 92 ± 23 | failed to reduce levels of NA | 69.9 % of control |
| Cn1c(CC(=O)O)c2n(c1=S)C[C@@]1(c3c(F)ccc(Cl)c3F)C[C@@H]21 [Example 231, 2-((5aS,6aR)-5a-(3-chloro-2,6-difluorophenyl)-2-methyl-3-thioxo-2,3,5,5a,6,6a-hexahydrocyclopropa[3,4]pyrrolo[1,2-c]imidazol-1-yl)acetic Acid] | 5.6 % of control | – | 99 ± 14 | failed to reduce levels of NA | 35.9 % of control |
| Cl.Cn1c(CCN[C@@H]2CCOC2)c2n(c1=S)C[C@H](c1c(F)ccc(Br)c1F)C2 [Example 256, (S)-6-(3-bromo-2,6-difluorophenyl)-2-methyl-1-(2-(((R)-tetrahydrofuran-3-yl)amino)ethyl)-2,5,6,7-tetrahydro-3H-pyrrolo[1,2-c]imidazole-3-thione hydrochloride] | 29.2 % of control | – | 128 ± 64 | failed to reduce levels of NA | 61.7 % of control |
| CN(C(=O)Cc1c2n(c(=S)n1C)C[C@@]1(c3c(F)ccc(Cl)c3F)C[C@@H]21)C1COC1 [Example 403, 2-((5aS,6aR)-5a-(3-chloro-2,6-difluorophenyl)-2-methyl-3-thioxo-2,3,5,5a,6,6a-hexahydrocyclopropa[3,4]pyrrolo[1,2-c]imidazol-1-yl)-N-methyl-N-(oxetan-3-yl)acetamide] | 4.8 % of control | – | 87 ± 16 | failed to reduce levels of NA | 29.9 % of control |
